Assay results from patent US8900590B2 (priority 2010, dated 2014).

System: H1N1 A/California/04/09
Assay type: in vivo, DBA/2 mice
Conditions: 18 days

CCOC(=O)C1=C[C@@H](OC(CC)CC)[C@H](NC(C)=O)[C@@H](N)C1 [oseltamivir]
animals survived: no survival
